The term Kd denotes the concentration at which binding is half-saturated. Read a low Kd as a tighter complex. What is called IC50 is the concentration that gives 50% inhibition.

Here are results for 1 compound from ChEMBL document CHEMBL1156625, “NMR screening for lead compounds using tryptophan-mutated proteins” (J Med Chem, 2008).

In test [1] the target is Cyclin-dependent kinase 2 (Homo sapiens, UniProt P24941). As to the kind of experiment: Binding affinity to CDK2.
Test [2] can be described thus: Inhibition of PKC.
Test [3] can be described thus: Inhibition of PKA.
Test [4] addresses Epidermal growth factor receptor (Homo sapiens, UniProt P00533). As to the kind of experiment: Inhibition of EGFR.

Sequence of Epidermal growth factor receptor (P00533 whole entry): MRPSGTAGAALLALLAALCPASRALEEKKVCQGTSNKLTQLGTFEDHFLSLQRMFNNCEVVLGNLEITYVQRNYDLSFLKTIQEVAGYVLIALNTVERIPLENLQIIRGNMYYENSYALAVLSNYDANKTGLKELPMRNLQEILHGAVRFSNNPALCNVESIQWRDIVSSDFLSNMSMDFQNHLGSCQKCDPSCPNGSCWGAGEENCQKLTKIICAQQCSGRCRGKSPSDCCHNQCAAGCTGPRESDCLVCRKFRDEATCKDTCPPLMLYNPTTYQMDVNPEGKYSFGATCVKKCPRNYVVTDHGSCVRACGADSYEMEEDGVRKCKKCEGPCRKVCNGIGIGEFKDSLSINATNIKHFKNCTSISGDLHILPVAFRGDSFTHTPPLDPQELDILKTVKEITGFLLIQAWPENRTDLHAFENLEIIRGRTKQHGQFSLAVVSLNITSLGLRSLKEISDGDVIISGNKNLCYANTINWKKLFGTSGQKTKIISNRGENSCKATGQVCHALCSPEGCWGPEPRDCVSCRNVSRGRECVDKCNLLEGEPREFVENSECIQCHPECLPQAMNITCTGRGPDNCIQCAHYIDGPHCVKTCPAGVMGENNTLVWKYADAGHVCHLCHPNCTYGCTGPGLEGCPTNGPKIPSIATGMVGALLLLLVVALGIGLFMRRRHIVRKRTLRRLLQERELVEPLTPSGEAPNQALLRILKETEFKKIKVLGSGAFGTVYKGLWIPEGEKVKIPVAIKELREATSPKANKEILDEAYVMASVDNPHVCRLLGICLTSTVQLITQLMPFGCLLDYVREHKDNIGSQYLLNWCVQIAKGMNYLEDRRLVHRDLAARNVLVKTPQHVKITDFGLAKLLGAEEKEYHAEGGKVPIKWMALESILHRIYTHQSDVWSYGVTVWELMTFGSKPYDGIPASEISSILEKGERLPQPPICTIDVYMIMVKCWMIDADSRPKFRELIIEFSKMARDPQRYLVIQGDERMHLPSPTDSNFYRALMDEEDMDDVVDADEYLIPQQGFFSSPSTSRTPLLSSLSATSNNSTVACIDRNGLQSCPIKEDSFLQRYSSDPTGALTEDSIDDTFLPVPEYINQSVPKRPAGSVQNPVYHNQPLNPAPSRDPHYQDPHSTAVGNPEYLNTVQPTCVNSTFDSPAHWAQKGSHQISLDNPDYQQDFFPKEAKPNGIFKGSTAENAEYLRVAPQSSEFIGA

For `O=C(/C=C/c1ccc(O)c(O)c1)c1ccc(O)cc1O` [BUTEIN], in test [1], binding was characterised by a dissociation constant (Kd) of 100 µM. Also, the results for the IC50 in test [2], in test [3] and in test [4] were greater than 500 µM, greater than 500 µM and 16 µM, respectively.
